Legend:
rat [1] = conditions: Subchronic oral toxicity in rodents, sprague dawley, Feed, dose end: 13 week, group: systemic
dog [2] = conditions: Chronic toxicity; beagle; Oral; Feed; dose end: 52 week; group: systemic; systemic / hematology / blood clotting / blood clotting - prothrombin time + systemic / hematology / erythrocyte (rbc) count differential / …
rat [3] = conditions: Subchronic inhalation toxicity, wistar, Whole-Body, dose end: 78 day, group: systemic, systemic / organ weight / kidney / nos + systemic / organ weight / liver / nos + systemic / organ weight / ovary / nos + systemic / …
mouse [4] = conditions: Carcinogenicity, cd1, Oral, Feed, dose end: 108 week, group: systemic
mouse [5] = conditions: Subchronic oral toxicity in rodents, cd1, Feed, dose end: 90 day, group: systemic
rat [6] = conditions: Prenatal developmental toxicity study, sprague dawley, Oral, Gavage/Intubation, dose end: 17 GD
rat [7] = conditions: Multigenerational reproductive toxicity study, other, Oral, Feed, dose end: 2 generation
rabbit [8] = conditions: Prenatal developmental toxicity study, new zealand white, Oral, Gavage/Intubation, dose end: 28 GD
rat [9] = conditions: Combined chronic toxicity/carcinogenicity; sprague dawley; Oral; Feed; dose end: 104 week; group: systemic; systemic / hematology / blood clotting / blood clotting - thromboplastin time + systemic / hematology / platelet / platelet + systemic / …
dog [10] = conditions: Chronic toxicity, beagle, Oral, Capsule, dose end: 52 week, group: systemic
rat [11] = conditions: Subchronic oral toxicity in rodents, fischer, Feed, dose end: 13 week, group: systemic
rat [12] = conditions: Multigenerational reproductive toxicity study, other, Oral, Feed, dose end: 2 generation; remark: listed apart in the source
mouse [13] = conditions: Carcinogenicity; cd1; Oral; Feed; dose end: 78 week; group: systemic; systemic / in life observation / clinical signs / alopecia + systemic / in life observation / mortality / mortality + systemic / pathology …
rat [14] = conditions: Subchronic oral toxicity in rodents, wistar, Feed, dose end: 90 day, group: systemic
rabbit [15] = conditions: Prenatal developmental toxicity study, new zealand white, Oral, Gavage/Intubation, dose end: 20 GD
rat [16] = conditions: Prenatal developmental toxicity study, wistar, Oral, Gavage/Intubation, dose end: 16 GD
rat [17] = conditions: Prenatal developmental toxicity study; sprague dawley; Oral; Gavage/Intubation; dose end: 15 GD; group: maternal; reproductive / reproductive performance / postimplantation loss / postimplantation loss + reproductive / reproductive performance / …
dog [18] = conditions: Chronic toxicity, beagle, Oral, Feed, dose end: 104 week
rat [19] = conditions: Combined chronic toxicity/carcinogenicity, sprague dawley, Oral, Feed, dose end: 103 week
rat [20] = conditions: Subchronic oral toxicity in rodents, Feed, dose end: 13 week
[21] = systemic / clinical chemistry / alanine aminotransferase (alt/sgpt) / alanine aminotransferase (alt/sgpt) + systemic / clinical chemistry / …
[22] = systemic / in life observation / body weight / body weight gain + systemic / in life observation / mortality / mortality
[23] = systemic / in life observation / body weight / body weight gain + systemic / in life observation / mortality / mortality + systemic / …
[24] = systemic / hematology / erythrocyte (rbc) count differential / erythrocyte (rbc) + systemic / hematology / hematocrit (hct) / hematocrit (…
[25] = group: developmental, systemic / in life observation / clinical signs / mobility + systemic / in life observation / clinical signs / rearing activity + …
[26] = group: maternal, systemic / in life observation / clinical signs / salivation
[27] = group: offspring, systemic / organ weight / liver / relative to body weight
[28] = group: offspring, systemic / organ weight / liver / relative to body weight + systemic / in life observation / body weight / offspring (pup) weight + systemic…
[29] = group: parental, systemic / organ weight / thyroid gland / absolute
[30] = group: developmental, systemic / in life observation / body weight / fetal weight
[31] = group: maternal, reproductive / reproductive performance / aborted / aborted + reproductive / reproductive performance / postimplantation loss / …
[32] = systemic / pathology microscopic / parathyroid gland / cyst + systemic / pathology microscopic / pituitary gland / cyst
[33] = systemic / urinalysis / ph / ph
[34] = group: offspring, systemic / in life observation / body weight / offspring (pup) weight
[35] = group: reproductive, reproductive / offspring survival early / dead fetuses / dead fetuses
[36] = systemic / organ weight / heart / absolute + systemic / organ weight / heart / relative to body weight + systemic / clinical chemistry / …
[37] = group: developmental, developmental / developmental malformation / bone / delayed ossification + developmental / developmental malformation / bone / short …
[38] = group: maternal, systemic / in life observation / body weight / body weight loss + systemic / in life observation / clinical signs / inappetence + systemic…
[39] = group: developmental, developmental / developmental malformation / bone / delayed ossification + developmental / developmental malformation / bone / unossified + …
[40] = group: maternal, systemic / in life observation / body weight / body weight gain + systemic / in life observation / food consumption / food consumption
[41] = group: cholinesterase, cholinesterase / cholinesterase / cholinesterase / brain cholinesterase (che) + cholinesterase / cholinesterase / cholinesterase / whole …
[42] = group: systemic, systemic / in life observation / water consumption / water consumption
[43] = group: cholinesterase, cholinesterase / cholinesterase / cholinesterase / brain cholinesterase (che)
[44] = group: cholinesterase, cholinesterase / cholinesterase / cholinesterase / brain cholinesterase (che) + cholinesterase / cholinesterase / cholinesterase / plasma …
[45] = group: systemic, systemic / pathology microscopic / eye / cataract
[46] = group: cholinesterase, cholinesterase / cholinesterase / cholinesterase / whole blood cholinesterase (che) + cholinesterase / cholinesterase / cholinesterase / …
[47] = group: systemic, systemic / in life observation / food consumption / food consumption

SMILES: CCOc1ccc(C(C)(C)COCc2cccc(Oc3ccccc3)c2)cc1 [Etofenprox]
- LOAEL (rat [1]; [21]): 120 mg/kg/day
- NOAEL (rat [1]; [21]): 20 mg/kg/day
- LEL (rat [1]; systemic / clinical chemistry / glucose / glucose): 23 mg/kg/day
- NEL (rat [1]; systemic / clinical chemistry / glucose / glucose + systemic / clinical chemistry / alanine aminotransferase (alt/sgpt) / alanine …): 3.8 mg/kg/day
- LEL (dog [2]): 339 mg/kg/day
- LOAEL (dog [2]): 339 mg/kg/day
- NEL (dog [2]): 32.2 mg/kg/day
- NOAEL (dog [2]): 32.2 mg/kg/day
- LEL (rat [3]): 52.3 mg/kg/day
- LOAEL (rat [3]): 52.3 mg/kg/day
- NEL (rat [3]): 10.6 mg/kg/day
- NOAEL (rat [3]): 10.6 mg/kg/day
- LEL (mouse [4]; [22]): 10.4 mg/kg/day
- LOAEL (mouse [4]; [22]): 10.4 mg/kg/day
- NEL (mouse [4]; [23]): 3.1 mg/kg/day
- NOAEL (mouse [4]; [23]): 3.1 mg/kg/day
- LOAEL (mouse [5]; [24]): 375 mg/kg/day
- NEL (mouse [5]; [24]): 6.1 mg/kg/day
- NOAEL (mouse [5]; [24]): 60 mg/kg/day
- LEL (mouse [5]; systemic / hematology / mean corpuscular (cell) volume (mcv) / mean corpuscular (cell) volume (mcv) + systemic / hematology / monocytes / …): 60 mg/kg/day
- LEL (rat [6]; group: developmental, systemic / in life observation / clinical signs / mobility + systemic / in life observation / clinical signs / rearing activity): 250 mg/kg/day
- LOAEL (rat [6]; [25]): 5000 mg/kg/day
- NEL (rat [6]; [25]): 12.5 mg/kg/day
- NOAEL (rat [6]; [25]): 250 mg/kg/day
- LOAEL (rat [6]; group: maternal, systemic / in life observation / clinical signs / anogenital staining + systemic / in life observation / clinical signs / scabbing): 5000 mg/kg/day
- LEL (rat [6]; [26]): 12.5 mg/kg/day
- NEL (rat [6]; [26]): < 12.5 mg/kg/day
- NOAEL (rat [6]; group: maternal, systemic / in life observation / clinical signs / salivation + systemic / in life observation / clinical signs / anogenital staining + …): 250 mg/kg/day
- LEL (rat [7]; [27]): 35 mg/kg/day
- LOAEL (rat [7]; [27]): 35 mg/kg/day
- NEL (rat [7]; [28]): 5 mg/kg/day
- NOAEL (rat [7]; [28]): 5 mg/kg/day
- LOAEL (rat [7]; group: parental, systemic / organ weight / liver / relative to body weight): 35 mg/kg/day
- NOAEL (rat [7]; group: parental, systemic / organ weight / liver / relative to body weight + systemic / in life observation / clinical signs / discharge on cageboard + …): 5 mg/kg/day
- LEL (rat [7]; [29]): 5 mg/kg/day
- NEL (rat [7]; [29]): < 5 mg/kg/day
- LEL (rabbit [8]; [30]): 300 mg/kg/day
- LOAEL (rabbit [8]; [30]): 300 mg/kg/day
- NEL (rabbit [8]; [30]): 100 mg/kg/day
- NOAEL (rabbit [8]; [30]): 100 mg/kg/day
- LEL (rabbit [8]; [31]): 300 mg/kg/day
- LOAEL (rabbit [8]; [31]): 300 mg/kg/day
- NEL (rabbit [8]; [31]): 100 mg/kg/day
- NOAEL (rabbit [8]; [31]): 100 mg/kg/day
- LEL (rat [9]): 1.1 mg/kg/day
- LOAEL (rat [9]): 25.5 mg/kg/day
- NEL (rat [9]): < 1.1 mg/kg/day
- NOAEL (rat [9]): 3.7 mg/kg/day

SMILES: Cc1ccc(-c2c(Cl)nc(C#N)n2S(=O)(=O)N(C)C)cc1 [Cyazofamid]
- LOAEL (dog [10]; [32]): 1000 mg/kg/day
- NEL (dog [10]; [32]): 40 mg/kg/day
- NOAEL (dog [10]; [32]): 200 mg/kg/day
- LEL (dog [10]; systemic / pathology microscopic / pituitary gland / cyst): 200 mg/kg/day
- LOAEL (rat [11]; systemic / pathology microscopic / kidney / basophilia + systemic / urinalysis / protein / protein): 294 mg/kg/day
- NOAEL (rat [11]; systemic / pathology microscopic / kidney / basophilia + systemic / urinalysis / protein / protein + systemic / urinalysis / ph / ph + …): 29.5 mg/kg/day
- LEL (rat [11]; [33]): 0.6 mg/kg/day
- NEL (rat [11]; [33]): < 0.6 mg/kg/day
- LEL (rat [12]; [34]): 1000 mg/kg/day
- LOAEL (rat [12]; [34]): > 1000 mg/kg/day
- NEL (rat [12]; [34]): 100 mg/kg/day
- NOAEL (rat [12]; [34]): ≥ 1000 mg/kg/day
- LEL (rat [12]; [35]): 1000 mg/kg/day
- LOAEL (rat [12]; [35]): > 1000 mg/kg/day
- NEL (rat [12]; [35]): 100 mg/kg/day
- NOAEL (rat [12]; [35]): ≥ 1000 mg/kg/day
- LEL (mouse [13]): 985 mg/kg/day
- LOAEL (mouse [13]): 985 mg/kg/day
- NEL (mouse [13]): 94.8 mg/kg/day
- NOAEL (mouse [13]): 94.8 mg/kg/day

SMILES: CCCCOC(=O)[C@@H](C)Oc1ccc(Oc2ccc(C(F)(F)F)cn2)cc1 [Fluazifop-P-butyl]
- LEL (rat [14]; [36]): 0.5 mg/kg/day
- NEL (rat [14]; [36]): < 0.5 mg/kg/day
- LOAEL (rat [14]; systemic / organ weight / spleen / absolute + systemic / organ weight / spleen / relative to body weight + systemic / hematology / …): 5 mg/kg/day
- NOAEL (rat [14]; systemic / organ weight / spleen / absolute + systemic / organ weight / spleen / relative to body weight + systemic / organ weight / brain…): 0.5 mg/kg/day
- LEL (rabbit [15]; [37]): 50 mg/kg/day
- LOAEL (rabbit [15]; [37]): 50 mg/kg/day
- NEL (rabbit [15]; [37]): 10 mg/kg/day
- NOAEL (rabbit [15]; [37]): 10 mg/kg/day
- LEL (rabbit [15]; [38]): 50 mg/kg/day
- LOAEL (rabbit [15]; [38]): 50 mg/kg/day
- NEL (rabbit [15]; [38]): 10 mg/kg/day
- NOAEL (rabbit [15]; [38]): 10 mg/kg/day
- LEL (rat [16]; [39]): 20 mg/kg/day
- LOAEL (rat [16]; [39]): 20 mg/kg/day
- NEL (rat [16]; [39]): 1 mg/kg/day
- NOAEL (rat [16]; [39]): 1 mg/kg/day
- LOAEL (rat [16]; group: maternal, systemic / in life observation / body weight / body weight gain): 300 mg/kg/day
- LEL (rat [16]; [40]): 300 mg/kg/day
- NEL (rat [16]; [40]): 20 mg/kg/day
- NOAEL (rat [16]; [40]): 20 mg/kg/day

SMILES: CNC(=O)Oc1cccc2c1OC(C)(C)O2 [Bendiocarb]
- LEL (rat [17]): 10 mg/kg/day
- LOAEL (rat [17]): 10 mg/kg/day
- NEL (rat [17]): 2 mg/kg/day
- NOAEL (rat [17]): 2 mg/kg/day
- LEL (dog [18]; [41]): 15 mg/kg/day
- LOAEL (dog [18]; [41]): 15 mg/kg/day
- NEL (dog [18]; [41]): 3 mg/kg/day
- NOAEL (dog [18]; [41]): 3 mg/kg/day
- LEL (dog [18]; [42]): 3 mg/kg/day
- LOAEL (dog [18]; [42]): > 15 mg/kg/day
- NEL (dog [18]; [42]): 0.7 mg/kg/day
- NOAEL (dog [18]; [42]): ≥ 15 mg/kg/day
- LEL (rat [19]; [43]): 0.86 mg/kg/day
- LOAEL (rat [19]; [43]): 0.86 mg/kg/day
- NEL (rat [19]; [44]): 0.42 mg/kg/day
- NOAEL (rat [19]; [44]): 0.42 mg/kg/day
- LEL (rat [19]; [45]): 0.72 mg/kg/day
- LOAEL (rat [19]; [45]): 0.72 mg/kg/day
- NEL (rat [19]; [45]): 0.35 mg/kg/day
- NOAEL (rat [19]; [45]): 0.35 mg/kg/day
- NEL (rat [20]; group: cholinesterase, cholinesterase / cholinesterase / cholinesterase / plasma cholinesterase (che) + cholinesterase / cholinesterase / cholinesterase / whole …): 0.5 mg/kg/day
- LEL (rat [20]; group: cholinesterase, cholinesterase / cholinesterase / cholinesterase / whole blood cholinesterase (che)): 2.5 mg/kg/day
- LOAEL (rat [20]; [46]): > 12.5 mg/kg/day
- NOAEL (rat [20]; [46]): ≥ 12.5 mg/kg/day
- LEL (rat [20]; [47]): 12.5 mg/kg/day
- LOAEL (rat [20]; [47]): 12.5 mg/kg/day
- NEL (rat [20]; [47]): 2.5 mg/kg/day
- NOAEL (rat [20]; [47]): 2.5 mg/kg/day
